The target of assay [1] is T1, human TLR7 (Homo sapiens, UniProt Q9NYK1).
T1 construct: host or cells: HEK293 (HEK-Blue hTLR7)
T1 sequence (Q9NYK1 27-1049): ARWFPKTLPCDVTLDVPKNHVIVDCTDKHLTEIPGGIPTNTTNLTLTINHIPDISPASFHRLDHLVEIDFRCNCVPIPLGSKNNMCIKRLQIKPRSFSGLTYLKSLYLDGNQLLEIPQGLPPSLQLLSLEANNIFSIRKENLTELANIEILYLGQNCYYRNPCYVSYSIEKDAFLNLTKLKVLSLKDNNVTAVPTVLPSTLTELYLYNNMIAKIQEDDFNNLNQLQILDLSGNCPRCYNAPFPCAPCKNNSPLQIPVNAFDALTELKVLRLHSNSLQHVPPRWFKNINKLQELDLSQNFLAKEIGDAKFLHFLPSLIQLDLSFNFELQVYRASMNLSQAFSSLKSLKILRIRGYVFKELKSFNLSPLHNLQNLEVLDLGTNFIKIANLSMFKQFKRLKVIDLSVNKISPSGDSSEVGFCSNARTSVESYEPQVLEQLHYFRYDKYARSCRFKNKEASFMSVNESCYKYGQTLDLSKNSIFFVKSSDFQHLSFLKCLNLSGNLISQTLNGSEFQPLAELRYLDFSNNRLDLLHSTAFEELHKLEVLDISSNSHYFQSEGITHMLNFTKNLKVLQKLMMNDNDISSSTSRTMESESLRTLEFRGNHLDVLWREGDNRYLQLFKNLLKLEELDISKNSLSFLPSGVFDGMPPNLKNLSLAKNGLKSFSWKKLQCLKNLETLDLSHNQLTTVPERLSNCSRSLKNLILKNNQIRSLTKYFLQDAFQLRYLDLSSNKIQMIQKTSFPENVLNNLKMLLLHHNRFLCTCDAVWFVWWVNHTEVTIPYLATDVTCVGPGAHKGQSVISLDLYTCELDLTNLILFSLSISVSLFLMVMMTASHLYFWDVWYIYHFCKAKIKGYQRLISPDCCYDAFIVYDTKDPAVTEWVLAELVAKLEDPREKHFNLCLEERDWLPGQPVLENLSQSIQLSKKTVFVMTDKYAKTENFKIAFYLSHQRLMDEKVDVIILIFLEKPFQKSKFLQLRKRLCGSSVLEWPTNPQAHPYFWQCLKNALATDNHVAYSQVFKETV
The assay is described as follows: HEK293-Blue-hTLR-7 cells assay. The assay is classed as cell-based. Conditions: HEK293-Blue-hTLR7 cells, R848 stimulation, 20 hrs, SEAP reporter; read-out: HEK/hTLR7 IC50. As to the method: The following tests were carried out in order to determine the activity of the compounds of formula (I) and (Ia) in HEK293-Blue-hTLR-7/8/9 cells assay.
HEK293-Blue-hTLR-7 cells assay:
A stable HEK293-Blue-hTLR-7 cell line was purchased from InvivoGen (Cat. #: hkb-htlr7, San Diego, Calif., USA). These cells were originally designed for studying the stimulation of human TLR7 by monitoring the activation of NF-κB. A SEAP (secreted embryonic alkaline phosphatase) reporter gene was placed under the control of the […] minimal promoter fused to five NF-κB and AP-1-binding sites. The SEAP was induced by activating NF-κB and AP-1 via stimulating HEK-Blue hTLR7 cells with TLR7 ligands. Therefore, the reporter expression was declined by TLR7 antagonist under the stimulation of a ligand, such as R848 (Resiquimod), for incubation of 20 hrs. The cell culture supernatant SEAP reporter activity was determined using QUANTI-Blue™ kit (Cat. #: rep-qb1, Invivogen, San Diego, Calif., USA) at a wavelength of 640 nm, a detection medium that turns purple or blue in the presence of alkaline phosphatase.
Then 20 μL of the supernatant from each well was incubated with […] Quanti-blue substrate solution at 37° C. for 2 hrs and the absorbance was read at 620-655 nm using a spectrophotometer. The signaling pathway that TLR7 activation leads to downstream NF-κB activation has been widely accepted, and therefore similar reporter assay was modified for evaluating TLR7 antagonist.

In assay [2] the target is T2, human TLR8 (Homo sapiens, UniProt Q9NR97).
T2 sequence (Q9NR97 27-1041): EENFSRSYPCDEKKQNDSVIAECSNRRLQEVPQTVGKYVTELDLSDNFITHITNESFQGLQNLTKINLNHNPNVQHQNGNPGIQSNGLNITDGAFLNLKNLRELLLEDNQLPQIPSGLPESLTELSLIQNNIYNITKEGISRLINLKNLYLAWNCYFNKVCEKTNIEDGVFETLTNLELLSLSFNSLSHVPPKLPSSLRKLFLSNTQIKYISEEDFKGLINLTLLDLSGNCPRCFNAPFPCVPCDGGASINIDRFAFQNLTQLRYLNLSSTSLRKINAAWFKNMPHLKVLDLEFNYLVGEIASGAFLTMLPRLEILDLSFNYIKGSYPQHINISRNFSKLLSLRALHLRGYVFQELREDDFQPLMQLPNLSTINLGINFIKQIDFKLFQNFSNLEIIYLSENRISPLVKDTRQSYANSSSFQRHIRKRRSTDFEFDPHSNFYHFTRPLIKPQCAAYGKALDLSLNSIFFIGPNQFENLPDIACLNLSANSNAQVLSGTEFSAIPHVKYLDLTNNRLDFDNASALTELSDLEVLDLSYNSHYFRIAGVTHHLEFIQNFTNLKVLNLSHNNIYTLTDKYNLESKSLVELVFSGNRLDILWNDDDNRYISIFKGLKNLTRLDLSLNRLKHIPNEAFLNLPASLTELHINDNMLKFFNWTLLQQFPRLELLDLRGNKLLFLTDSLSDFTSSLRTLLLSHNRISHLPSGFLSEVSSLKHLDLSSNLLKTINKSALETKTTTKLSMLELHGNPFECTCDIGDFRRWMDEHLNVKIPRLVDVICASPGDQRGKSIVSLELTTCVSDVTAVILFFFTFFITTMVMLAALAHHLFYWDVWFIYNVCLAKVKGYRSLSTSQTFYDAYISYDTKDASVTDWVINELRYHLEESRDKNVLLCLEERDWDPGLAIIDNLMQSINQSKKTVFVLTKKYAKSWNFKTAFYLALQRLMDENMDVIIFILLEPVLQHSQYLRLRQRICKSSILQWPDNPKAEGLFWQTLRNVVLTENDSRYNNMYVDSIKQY
Description: HEK293-Blue-hTLR-8 cells assay.

Turning to `C[C@@H]1CN(c2ccc(C#N)c3ncccc23)C[C@@H]2CN(CCc3ccc(N4CC5(CN(C)C5)C4)nc3)CCN21` [Example 22, 5-[(4R,9aS)-4-methyl-8-[2-[6-(6-methyl-2,6-diazaspiro[3.3]heptan-2-yl)-3-pyridyl]ethyl]-3,4,6,7,9,9a-hexahydro-1H-pyrazino[1,2-a]pyrazin-2-yl]quinoline-8-carbonitrile], the IC50 was 0.026 µM in assay [1] and 0.058 µM in assay [2].
On to `C[C@@H]1CN(c2ccc(C#N)c3ncccc23)C[C@@H]2CN(c3ccnc(N4CCOC[C@@H](N)C4)c3)CCN21` [Example 53, 5-[(4R,9aS)-8-[2-[(6S)-6-amino-1,4-oxazepan-4-yl]-4-pyridyl]-4-methyl-3,4,6,7,9,9a-hexahydro-1H-pyrazino[1,2-a]pyrazin-2-yl]quinoline-8-carbonitrile], for which the IC50 in assay [1] was 0.013 µM; in assay [2], 0.02 µM.
With `CO[C@@H]1CN(c2ccnc(N3CCN4[C@@H](C3)CN(c3ccc(C#N)c5ncccc35)C[C@H]4C)n2)C[C@H]1N` [Example 37, 5-[(4R,9aR)-8-[4-[(3R,4R)-3-amino-4-methoxy-pyrrolidin-1-yl]pyrimidin-2-yl]-4-methyl-3,4,6,7,9,9a-hexahydro-1H-pyrazino[1,2-a]pyrazin-2-yl]quinoline-8-carbonitrile], the IC50 came out at 0.021 µM in assay [1] and 0.026 µM in assay [2].
Turning to `CO[C@@H]1CN(c2ccc(CCN3CCN4[C@@H](C3)CN(c3ccc(C#N)c5ncccc35)C[C@H]4C)cn2)C[C@H]1N` [Example 12, 5-[(4R,9aS)-8-[2-[6-[(3R,4R)-3-amino-4-methoxy-pyrrolidin-1-yl]-3-pyridyl]ethyl]-4-methyl-3,4,6,7,9,9a-hexahydro-1H-pyrazino[1,2-a]pyrazin-2-yl]quinoline-8-carbonitrile], the IC50 worked out at 0.012 µM in assay [1] and 0.014 µM in assay [2].
The matching figures for `C[C@@H]1CN(c2ccc(C#N)c3ncccc23)C[C@@H]2CN(Cc3ccc4c(c3)CCNC4)CCN21` [Example 10, 5-[(4R,9aS)-4-methyl-8-(1,2,3,4-tetrahydroisoquinolin-6-ylmethyl)-3,4,6,7,9,9a-hexahydro-1H-pyrazino[1,2-a]pyrazin-2-yl]quinoline-8-carbonitrile]: 0.026 µM and 0.012 µM.
The matching figures for `C[C@@H]1CN(c2ccc(C#N)c3ncccc23)C[C@@H]2CN(Cc3ccc4c(c3)CNCC4)CCN21` [Example 5, 5-[(4R,9aS)-4-methyl-8-(1,2,3,4-tetrahydroisoquinolin-7-ylmethyl)-3,4,6,7,9,9a-hexahydro-1H-pyrazino[1,2-a]pyrazin-2-yl]quinoline-8-carbonitrile]: 0.017 µM and 0.012 µM.
In the case of `[2H]c1ccc2c(N3C[C@@H]4CN(c5ccc(N6C[C@@H](N)[C@H](OC)C6)nc5)CCN4[C@@H](C)C3)ccc(C#N)c2n1` [Example 115, 5-[(4S,9aR)-8-[6-[(3R,4R)-3-amino-4-methoxy-pyrrolidin-1-yl]-3-pyridyl]-4-methyl-3,4,6,7,9,9a-hexahydro-1H-pyrazino[1,2-a]pyrazin-2-yl]-2-deuterio-quinoline-8-carbonitrile], the IC50 in assay [1] was 0.01 µM; in assay [2] it was 0.017 µM.
The matching figures for `[2H]c1ccc2c(N3C[C@@H]4CN(CCc5ccc(N6C[C@@H](N)[C@H](OC)C6)nc5)CCN4[C@H](C)C3)ccc(C#N)c2n1` [Example 62, 5-[(4R,9aS)-8-[2-[6-[(3R,4R)-3-amino-4-methoxy-pyrrolidin-1-yl]-3-pyridyl]ethyl]-4-methyl-3,4,6,7,9,9a-hexahydro-1H-pyrazino[1,2-a]pyrazin-2-yl]-2-deuterio-quinoline-8-carbonitrile]: 0.023 µM and 0.017 µM.
The matching figures for `C[C@@H]1CN(c2ccc(C#N)c3ncccc23)C[C@@H]2CN(c3nccc(N4CC(N)C4)n3)CCN21` [Example 39, 5-[(4R,9aR)-8-[4-(3-aminoazetidin-1-yl)pyrimidin-2-yl]-4-methyl-3,4,6,7,9,9a-hexahydro-1H-pyrazino[1,2-a]pyrazin-2-yl]quinoline-8-carbonitrile]: 0.021 µM and 0.017 µM.

The values are drawn from patent publication US20220340597A1, “HEXAHYDRO-1H-PYRAZINO[1,2-A]PYRAZINE COMPOUNDS FOR THE TREATMENT OF AUTOIMMUNE DISEASE” (Hoffmann-La Roche Inc., priority 2019, published 2022).
